Assay results as given in ChEMBL document CHEMBL1147163 (Bioorg Med Chem, 2007).

assay: Inhibition of rat microsomal VKER

SMILES | IC50 [nM]
CC(=O)CC(c1ccccc1)c1c(O)oc2cc(O)ccc2c1=O (stereo unspecified) | 250000
CC(=O)CC(c1ccccc1)c1c(O)oc2ccc(O)cc2c1=O (stereo unspecified) | 12800
CC(=O)CC(c1ccccc1)c1c(SC[C@@H](NC(C)=O)C(=O)O)c2ccccc2oc1=O (stereo partly specified) | > 500000
CC(=O)CC(c1ccccc1)c1c(Cl)c2ccccc2oc1=O (stereo unspecified) | > 500000
CC(=O)CC(C1=C(O)c2ccccc2C1=O)c1ccccc1 (stereo unspecified) | 3000
CC(C)=CCC/C(C)=C/CC/C(C)=C/CC1=C(O)c2ccccc2C(=O)C1=O | 130
CCCCCCCC/C=C\CCCCCCCCc1c(O)c2ccccc2oc1=O | 900
CC(C)=CCC/C(C)=C/CC/C(C)=C/Cc1c(O)c2ccccc2oc1=O | 98
COc1c(C(CC(C)=O)c2ccccc2)c(=O)oc2ccccc12 (stereo unspecified) | > 500000
CC(=O)CC(c1ccccc1)c1cc2ccccc2oc1=O (stereo unspecified) | > 500000
CC(=O)CC(c1ccccc1)c1c(S)c2ccccc2oc1=O (stereo unspecified) | 18300
CC(=O)CC(c1ccc([N+](=O)[O-])cc1)c1c(O)c2ccccc2oc1=O (stereo unspecified) [ACENOCOUMAROL] | 770
O=c1oc2ccccc2c(O)c1C1CC(c2ccc(-c3ccc(Br)cc3)cc2)Cc2ccccc21 (stereo unspecified) [BRODIFACOUM] | 150
O=c1oc2ccccc2c(O)c1Cc1c(O)c2ccccc2oc1=O [DICUMAROL] | 3100
CC(C)=CCC/C(C)=C/CC/C(C)=C/Cc1c(O)c2cc(C)c(C)cc2oc1=O [DIMETHYLFERULENOL] | 340
CC(C)=CCc1c(O)c2ccccc2oc1=O [ISOPRENYLCOUMARIN] | 79000
CCC(c1ccccc1)c1c(O)c2ccccc2oc1=O (stereo unspecified) [PHENPROCOUMON] | 1800
CC(O)CC(c1ccccc1)c1c(O)c2ccccc2oc1=O (stereo unspecified) [WARFARIN ALCOHOL] | 12500
CC(=O)CC(c1ccccc1)c1c(OS(=O)(=O)C(F)(F)F)c2ccc(O)cc2oc1=O (stereo unspecified) [WARFARIN TRIFLATE] | > 500000
CC(=O)CC(c1ccccc1)c1c(O)c2ccccc2oc1=O (stereo unspecified) [WARFARIN] | 2200

assay: Dissociation constant, pKa of the compound; assay type: physicochemical

SMILES | pKa
CC(=O)CC(c1ccccc1)c1c(S)c2ccccc2oc1=O (stereo unspecified) | 6.6
